Measurements from patent US8546343B2, “Aminoglycoside antibiotics targeting bacterial 16S ribosomal RNA” (Eidgenoessische Technische Hochschule Zurich, priority 2007, dated 2013).
Converted amounts (≈) assume the structure as drawn.

Columns and labels:
[1] = tested on: M. smegmatis ΔrrnB 1408G (16S rRNA position 1408 G, eukaryotic cytosolic ribosomes); assay: MIC, recombinant M. smegmatis with mutant ribosomes 1408G; type: cell-based, Mycobacterium smegmatis; conditions: M. smegmatis ΔrrnB 1408G mutant ribosomes; 72 h at 37° C.
Outline: (§1)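 M. smegmatis single-rRNA-operon strain carrying the indicated 16S rRNA decoding-site alleles, introduced into the chromosomal operon and confirmed by sequencing. Colony-purified cultures were grown in LB with 0.05% Tween 80 and started at OD600 0.025. MIC was read in microtiter format against twofold drug dilutions.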

[2] = tested on: AG009 E. coli BM13 AAC(6′)-1B; assay: Standard MIC assay, AG009; type: cell-based, Escherichia coli; conditions: for Minimal inhibitory concentrations AG009: E. coli BM13 AAC(6′)-1B
Experimental: (§2) Selected compounds of the present invention were tested for antibiotic susceptibility using clinical isolates of Staphylococci, Enterococci and Escherichia coli as well as strains carrying defined resistance determinants and compared to well known antibiotics of the state of the art. Drug susceptibility was determined in standard MIC assays, i.e. by determination of the minimal drug concentration required to inhibit bacterial growth in vitro.

[3] = tested on: AG011 Staph. aureus clinical isolate; assay: Standard MIC assay, AG011; type: cell-based, Staphylococcus aureus
Experimental: as §2

[4] = tested on: AG014 Staph. epi. clinical isolate; assay: Standard MIC assay, AG014; type: cell-based, Staphylococcus epidermidis
Experimental: as §2

[5] = tested on: AG013 Staph. epi. clinical isolate; assay: Standard MIC assay, AG013; type: cell-based, Staphylococcus epidermidis
Experimental: as §2

[6] = tested on: AG006 E. coli BM13; assay: Standard MIC assay, AG006; type: cell-based, Escherichia coli
Experimental: as §2

[7] = tested on: AG019 E. faecalis JH2-2 (APH2″ AAC6′); assay: Standard MIC assay, AG019; type: cell-based, Enterococcus faecalis; conditions: for Minimal inhibitory concentrations AG019: E. faecalis JH2-2 (APH2″ AAC6′)
Experimental: as §2

[8] = tested on: M. smegmatis ΔrrnB 1491C (16S rRNA position 1491 C, eukaryotic mitochondrial ribosome); assay: MIC, recombinant M. smegmatis with mutant ribosomes 1491C; type: cell-based, Mycobacterium smegmatis; conditions: M. smegmatis ΔrrnB 1491C mutant ribosomes; 72 h at 37° C.
Outline: as §1

[9] = tested on: AG001 E. coli clinical isolate; assay: Standard MIC assay, AG001; type: cell-based, Escherichia coli
Experimental: as §2

[10] = tested on: AG015 S. aureus BM3002 (ANT4′); assay: Standard MIC assay, AG015; type: cell-based, Staphylococcus aureus; conditions: for Minimal inhibitory concentrations AG015: S. aureus BM3002 (ANT4′)
Experimental: as §2

[11] = tested on: AG016 S. aureus BM3002; assay: Standard MIC assay, AG016; type: cell-based, Staphylococcus aureus
Experimental: as §2

[12] = tested on: M. smegmatis ΔrrnB (bacterial ribosomes); assay: MIC, recombinant M. smegmatis with bacterial (wild-type) ribosomes; type: cell-based, Mycobacterium smegmatis; conditions: 72 h at 37° C.
Outline: as §1

[13] = tested on: AG007 E. coli BM13 (AAC3); assay: Standard MIC assay, AG007; type: cell-based, Escherichia coli; conditions: for Minimal inhibitory concentrations AG007: E. coli BM13 (AAC3)
Experimental: as §2

[14] = tested on: AG004 E. coli clinical isolate; assay: Standard MIC assay, AG004; type: cell-based, Escherichia coli
Experimental: as §2

[15] = tested on: M. smegmatis ΔrrnB 1491A (16S rRNA position 1491 A, eukaryotic cytosolic ribosomes); assay: MIC, recombinant M. smegmatis with mutant ribosomes 1491A; type: cell-based, Mycobacterium smegmatis; conditions: M. smegmatis ΔrrnB 1491A mutant ribosomes; 72 h at 37° C.
Outline: as §1

[16] = tested on: AG008 E. coli BM13 (ANT2″); assay: Standard MIC assay, AG008; type: cell-based, Escherichia coli; conditions: E. coli BM13 (ANT2″)
Experimental: as §2

[17] = tested on: AG017 E. faecalis JH2-2; assay: Standard MIC assay, AG017; type: cell-based, Enterococcus faecalis
Experimental: as §2

[18] = tested on: AG002 E. coli clinical isolate; assay: Standard MIC assay, AG002; type: cell-based, Escherichia coli
Experimental: as §2

[19] = tested on: AG003 E. coli clinical isolate; assay: Standard MIC assay, AG003; type: cell-based, Escherichia coli
Experimental: as §2

Compound	minimal inhibitory concentrations ΔrrnB 1408G [1]	Minimal inhibitory concentrations AG009 [2]	Minimal inhibitory concentrations AG011 [3]	Minimal inhibitory concentrations AG014 [4]	Minimal inhibitory concentrations AG013 [5]	Minimal inhibitory concentrations AG006 [6]	Minimal inhibitory concentrations AG019 [7]	minimal inhibitory concentrations ΔrrnB 1491C [8]	Minimal inhibitory concentrations AG001 [9]	Minimal inhibitory concentrations AG015 [10]	Minimal inhibitory concentrations AG016 [11]	minimal inhibitory concentrations ΔrrnB [12]	Minimal inhibitory concentrations AG007 [13]	Minimal inhibitory concentrations AG004 [14]	minimal inhibitory concentrations ΔrrnB 1491A [15]	Minimal inhibitory concentrations AG008 [16]	Minimal inhibitory concentrations AG017 [17]	further results
NC[C@@H]1O[C@H](O[C@H]2[C@@H](O)[C@H](O[C@@H]3[C@@H](O)[C@H](N)C[C@H](N)[C@H]3O[C@H]3O[C@@H]4CO[C@@H](c5ccc(Cl)cc5)O[C@H]4[C@H](O)[C@H]3N)O[C@@H]2CO)[C@H](N)[C@@H](O)[C@@H]1O [Compound 5.8, 4′,6′-O-p-Chlorobenzylideneparomomycin]	>512 µg/mL	64 µg/mL (≈ 86.7 µM)	4 to 8 µg/mL	8 to 16 µg/mL	8 µg/mL (≈ 10.8 µM)	64 µg/mL (≈ 86.7 µM)	64 µg/mL (≈ 86.7 µM)	>512 µg/mL	32 µg/mL (≈ 43.3 µM)	16 µg/mL (≈ 21.7 µM)	8 µg/mL (≈ 10.8 µM)	4 µg/mL	64 µg/mL (≈ 86.7 µM)	16 to 32 µg/mL	>512 µg/mL	64 µg/mL (≈ 86.7 µM)	16 to 32 µg/mL	
NC[C@H]1O[C@H](O[C@H]2[C@H](O)[C@@H](O[C@H]3O[C@H](CO)[C@@H](O)[C@H](N)[C@H]3O)[C@H](N)C[C@@H]2N)[C@H](N)C[C@@H]1O [Tobramycin, reference compound]																		MIC ([2]; Escherichia coli, read-out: Minimal inhibitory concentrations AG009): 128 to 256 µg/mL (≈ 274 to 548 µM); MIC ([3]; Staphylococcus aureus, read-out: Minimal inhibitory concentrations AG011): 8 µg/mL (≈ 17.1 µM); MIC ([4]; Staphylococcus epidermidis, read-out: Minimal inhibitory concentrations AG014): 256 µg/mL (≈ 548 µM); MIC ([5]; Staphylococcus epidermidis, read-out: Minimal inhibitory concentrations AG013): ≥ 256 µg/mL; MIC ([6]; Escherichia coli, read-out: Minimal inhibitory concentrations AG006): 2 µg/mL (≈ 4.28 µM); MIC ([7]; Enterococcus faecalis, read-out: Minimal inhibitory concentrations AG019): > 256 µg/mL; MIC ([9]; Escherichia coli, read-out: Minimal inhibitory concentrations AG001): 4 µg/mL (≈ 8.56 µM); MIC ([10]; Staphylococcus aureus, read-out: Minimal inhibitory concentrations AG015): ≥ 256 µg/mL; MIC ([18]; Escherichia coli, read-out: Minimal inhibitory concentrations AG002): 4 µg/mL (≈ 8.56 µM); MIC ([11]; Staphylococcus aureus, read-out: Minimal inhibitory concentrations AG016): 0.5 to 1 µg/mL (≈ 1.07 to 2.14 µM); MIC ([13]; Escherichia coli, read-out: Minimal inhibitory concentrations AG007): 8 µg/mL (≈ 17.1 µM); MIC ([14]; Escherichia coli, read-out: Minimal inhibitory concentrations AG004): 64 µg/mL (≈ 137 µM); MIC ([19]; Escherichia coli, read-out: Minimal inhibitory concentrations AG003): 32 µg/mL (≈ 68.4 µM); MIC ([17]; Enterococcus faecalis, read-out: Minimal inhibitory concentrations AG017): 16 to 32 µg/mL (≈ 34.2 to 68.4 µM)
NC[C@@H]1O[C@H](O[C@H]2[C@@H](O)[C@H](O[C@@H]3[C@@H](O)[C@H](N)C[C@H](N)[C@H]3O[C@H]3O[C@@H]4CO[C@@H](c5ccc6ccccc6c5)O[C@H]4[C@H](O)[C@H]3N)O[C@@H]2CO)[C@H](N)[C@@H](O)[C@@H]1O [Compound 5.20, 4′,6′-O-2-Naphthylideneparomomycin]	>512 µg/mL	16 to 32 µg/mL	1 to 2 µg/mL	1 µg/mL (≈ 1.33 µM)	1 µg/mL (≈ 1.33 µM)	8 to 16 µg/mL	8 to 16 µg/mL	512 µg/mL	8 µg/mL (≈ 10.6 µM)	8 to 16 µg/mL	4 µg/mL (≈ 5.31 µM)	2 to 4 µg/mL	16 to 32 µg/mL	8 µg/mL (≈ 10.6 µM)	512 µg/mL	16 µg/mL (≈ 21.2 µM)	8 to 16 µg/mL	
NC[C@@H]1O[C@H](O[C@H]2[C@@H](O)[C@H](O[C@@H]3[C@@H](O)[C@H](N)C[C@H](N)[C@H]3O[C@H]3O[C@H](CO)[C@@H](OCCCc4ccccc4)[C@H](O)[C@H]3N)O[C@@H]2CO)[C@H](N)[C@@H](O)[C@@H]1O [Compound 19c, 4′-p-(3-phenylpropyl)paromomycin]	≧512 μg/ml	32 µg/mL (≈ 43.6 µM)		2 µg/mL (≈ 2.73 µM)	4 to 8 µg/mL	8 to 16 µg/mL	32 µg/mL (≈ 43.6 µM)	512 µg/mL	16 to 32 µg/mL	16 µg/mL (≈ 21.8 µM)	4 µg/mL (≈ 5.45 µM)	8 to 16 µg/mL	8 to 16 µg/mL	16 µg/mL (≈ 21.8 µM)	≧512 μg/ml	8 to 16 µg/mL	8 to 16 µg/mL	Minimal inhibitory concentrations AG002 [18]: 16 µg/mL (≈ 21.8 µM); Minimal inhibitory concentrations AG003 [19]: 8 to 16 µg/mL
